Reference: the PolyMetriX glass transition set

| SMILES | glass transition temperature [°C] |
| --- | --- |
| *CCCCCCCCCCCCOC(=O)NCCCCCCCCCCNC(=O)O* (repeat unit) | 34.00 |
| */C=C/C1CC(*)C(C(=O)OC(C)(C)C)C1C(=O)OC(C)(C)C (repeat unit) | 83.40 |
| *CCc1ccc(*)s1 (repeat unit) | 26.00 |
| */C=C/C1CC(*)C(C#N)([Si](C)(C)C)C1 (repeat unit) | 211.00 |
| *CC(*)OC(=O)C(C)(CC)C(C)(C)C (repeat unit) | 120.00 |
| *CCCCCCCCCCCCOC(=O)Nc1ccc(Cc2ccc(NC(=O)O*)cc2)cc1 (repeat unit) | 43.00 |
| *CCCCCCN1C(=O)C(C)C(SCCOCCSC2C(=O)N(CCCCCCN3C(=O)CC(C)(SCCOCCSC4(C)CC(=O)N(*)C4=O)C3=O)C(=O)C2C)C1=O (repeat unit) | 78.00 |
| *CCCCCCOC(=O)OCCCCCCCCCOC(=O)OCCCCCCOc1ccc(Oc2ccc(O*)cc2)cc1 (repeat unit) | -20.00 |
| *CCOCCOC(=O)C(=O)O* (repeat unit) | -28.00 |
| *CCCCCCCC(=O)OCCCCC1COC(*)O1 (repeat unit) | -44.00 |
| *C#C/C(COS(=O)(=O)c1ccc(C)cc1)=C(/*)COS(=O)(=O)c1ccc(C)cc1 (repeat unit) | -73.00 |
| *C1Cc2ccccc2C1* (repeat unit) | 188.50 |
| *CCCCCCOC(=O)OCCCCCCCCCCCCOC(=O)OCCCCCCOc1ccc(Oc2ccc(O*)cc2)cc1 (repeat unit) | -22.00 |
| *C(=O)c1ccc2c(c1)C(=O)N(c1cc(OCCCCCCCCCCCC)cc(N3C(=O)c4ccc(*)cc4C3=O)c1)C2=O (repeat unit) | 182.00 |
| *[Si](*)(CCCC)CCCCC (repeat unit) | -26.00 |
| *Cc1ccc(CSS*)cc1 (repeat unit) | 23.00 |
| *C1CCC(N2C(=O)c3ccc(-c4ccc5c(c4)C(=O)N(*)C5=O)cc3C2=O)CC1 (repeat unit) | 360.00 |
| *CCCCCCCCCCOC(=O)NCCCCCCNC(=O)O* (repeat unit) | 55.00 |

Other lines, results leading:

| glass transition temperature [°C] | SMILES |
| --- | --- |
| 205.00 | *c1ccc(Oc2ccc(C(=O)c3ccc(C(=O)c4ccc(Oc5ccc(-c6cc(*)n(-c7ccccc7)n6)cc5)cc4)cc3)cc2)cc1 (repeat unit) |
| 264.00 | *c1ccc(Oc2cccc(-c3cc(-c4ccccc4)cc(-c4cccc(Oc5ccc(-n6c(=O)c7cc8c(=O)n(*)c(=O)c8cc7c6=O)cc5)c4)n3)c2)cc1 (repeat unit) |
| 68.10 | *Oc1ccc(C(C)(C)c2ccc(OC(=O)OCCCOC(*)=O)cc2)cc1 (repeat unit) |
| 74.00 | *OC(COC(=O)C1=C(C(=O)OCC(COC(=O)C2=C(c3ccccc3)C3C=CC2C3)OC(=O)c2ccc(C(*)=O)cc2)C2C=CC1C2)COC(=O)C1=C(c2ccccc2)C2C=CC1C2 (repeat unit) |
| 194.00 | *Oc1ccc(/C(=C/c2cc(OC)c(/C=C(/c3ccc(*)cc3)c3ccc(C(F)(F)F)cc3)cc2OC)c2ccc(C(F)(F)F)cc2)cc1 (repeat unit) |
| 60.00 | *CCCCCCOC(=O)c1ccc(-c2ccc(-c3ccc(C(=O)O*)cc3)cc2)cc1 (repeat unit) |
| 287.00 | *Oc1c(C)cc(C2(c3cc(C)c(OC(=O)c4ccc(C(*)=O)cc4)c(C)c3)CCC3CCCCC3C2)cc1C (repeat unit) |
| 172.00 | *CCNC(=O)c1ccc(C(=O)N*)c(Sc2ccccc2)c1 (repeat unit) |
| 201.00 | *c1ccc(C(=O)NCCCCCCNC(=O)c2ccc(-c3nc4ccccc4nc3*)cc2)cc1 (repeat unit) |
| 268.00 | *c1cccc(C(=O)Nc2ccc(Oc3ccc(Oc4ccc(NC(=O)c5cccc(N6C(=O)c7ccc(-c8cccc9c8C(=O)N(*)C9=O)cc7C6=O)c5)cc4)cc3)cc2)c1 (repeat unit) |
